Test results from ChEMBL document CHEMBL3044826, “Design, synthesis and biological evaluation of some novel substituted 2-mercapto-3-phenethylquinazolines as antitumor agents” (2013).

Key:
Format in all cases: functional
TK-10 = assay: Cytotoxicity against Homo sapiens (human) TK10 cells assessed as growth inhibition at 10 uM after 48 hr by coulter counter analysis; details: TK-10, 48 h, read-out: GI
SK-MEL-5 = assay: Cytotoxicity against Homo sapiens (human) SK-MEL-5 cells assessed as growth inhibition at 10 uM after 48 hr by coulter counter analysis; details: SK-MEL-5, 48 h, read-out: GI
MDA-MB-231 = assay: Cytotoxicity against Homo sapiens (human) MDA-MB-231 cells assessed as growth inhibition at 10 uM after 48 hr by coulter counter analysis; details: MDA-MB-231, 48 h, read-out: GI
BT-549 = assay: Cytotoxicity against Homo sapiens (human) BT549 cells assessed as growth inhibition at 10 uM after 48 hr by coulter counter analysis; details: BT-549, 48 h, read-out: GI
[1] = Cytotoxicity against Homo sapiens (human) NCI-ADR-RES cells assessed as growth inhibition at 10 uM after 48 hr by coulter counter analysis; details: read-out: GI
MDA-MB-435 = assay: Cytotoxicity against Homo sapiens (human) MDA-MB-435 cells assessed as growth inhibition at 10 uM after 48 hr by coulter counter analysis; details: MDA-MB-435, 48 h, read-out: GI
UACC-62 = assay: Cytotoxicity against Homo sapiens (human) UACC62 cells assessed as growth inhibition at 10 uM after 48 hr by coulter counter analysis; details: UACC-62, 48 h, read-out: GI
A498 = assay: Cytotoxicity against Homo sapiens (human) A498 cells assessed as growth inhibition at 10 uM after 48 hr by coulter counter analysis; details: A498, 48 h, read-out: GI
HT-29 = assay: Cytotoxicity against Homo sapiens (human) HT-29 cells assessed as growth inhibition at 10 uM after 48 hr by coulter counter analysis; details: HT-29, 48 h, read-out: GI
MCF7 = assay: Cytotoxicity against Homo sapiens (human) MCF7 cells assessed as growth inhibition at 10 uM after 48 hr by coulter counter analysis; details: MCF7, 48 h, read-out: GI
NCI-H322M = assay: Cytotoxicity against Homo sapiens (human) NCI-H322M cells assessed as growth inhibition at 10 uM after 48 hr by coulter counter analysis; details: read-out: GI
SNB-75 = assay: Cytotoxicity against Homo sapiens (human) SNB75 cells assessed as growth inhibition at 10 uM after 48 hr by coulter counter analysis; details: SNB-75, 48 h, read-out: GI
OVCAR-4 = assay: Cytotoxicity against Homo sapiens (human) OVCAR4 cells assessed as growth inhibition at 10 uM after 48 hr by coulter counter analysis; details: OVCAR-4, 48 h, read-out: GI
U-251 = assay: Cytotoxicity against Homo sapiens (human) U251 cells assessed as growth inhibition at 10 uM after 48 hr by coulter counter analysis; details: U-251, 48 h, read-out: GI
MDA-MB-468 = assay: Cytotoxicity against Homo sapiens (human) MDA-MB-468 cells assessed as growth inhibition at 10 uM after 48 hr by coulter counter analysis; details: MDA-MB-468, 48 h, read-out: GI
SK-MEL-28 = assay: Cytotoxicity against Homo sapiens (human) SK-MEL-28 cells assessed as growth inhibition at 10 uM after 48 hr by coulter counter analysis; details: SK-MEL-28, 48 h, read-out: GI
HCC 2998 = assay: Cytotoxicity against Homo sapiens (human) HCC2998 cells assessed as growth inhibition at 10 uM after 48 hr by coulter counter analysis; details: HCC 2998, 48 h, read-out: GI
SW-620 = assay: Cytotoxicity against Homo sapiens (human) SW620 cells assessed as growth inhibition at 10 uM after 48 hr by coulter counter analysis; details: SW-620, 48 h, read-out: GI
RXF 393 = assay: Cytotoxicity against Homo sapiens (human) RXF393 cells assessed as growth inhibition at 10 uM after 48 hr by coulter counter analysis; details: RXF 393, 48 h, read-out: GI
Malme-3M = assay: Cytotoxicity against Homo sapiens (human) MALME-3M cells assessed as growth inhibition at 10 uM after 48 hr by coulter counter analysis; details: read-out: GI
SNB-19 = assay: Cytotoxicity against Homo sapiens (human) SNB19 cells assessed as growth inhibition at 10 uM after 48 hr by coulter counter analysis; details: SNB-19, 48 h, read-out: GI
SF-268 = assay: Cytotoxicity against Homo sapiens (human) SF268 cells assessed as growth inhibition at 10 uM after 48 hr by coulter counter analysis; details: SF-268, 48 h, read-out: GI
HOP-62 = assay: Cytotoxicity against Homo sapiens (human) HOP62 cells assessed as growth inhibition at 10 uM after 48 hr by coulter counter analysis; details: HOP-62, 48 h, read-out: GI
PC-3 = assay: Cytotoxicity against Homo sapiens (human) PC3 cells assessed as growth inhibition at 10 uM after 48 hr by coulter counter analysis; details: PC-3, 48 h, read-out: GI
SN12C = assay: Cytotoxicity against Homo sapiens (human) SN12C cells assessed as growth inhibition at 10 uM after 48 hr by coulter counter analysis; details: read-out: GI
COLO 205 = assay: Cytotoxicity against Homo sapiens (human) COLO205 cells assessed as growth inhibition at 10 uM after 48 hr by coulter counter analysis; details: COLO 205, 48 h, read-out: GI
KM12 = assay: Cytotoxicity against Homo sapiens (human) KM12 cells assessed as growth inhibition at 10 uM after 48 hr by coulter counter analysis; details: KM12, 48 h, read-out: GI
A549 = assay: Cytotoxicity against Homo sapiens (human) A549 cells assessed as growth inhibition at 10 uM after 48 hr by coulter counter analysis; details: A549, 48 h, read-out: GI
HCT-15 = assay: Cytotoxicity against Homo sapiens (human) HCT15 cells assessed as growth inhibition at 10 uM after 48 hr by coulter counter analysis; details: HCT-15, 48 h, read-out: GI
OVCAR-8 = assay: Cytotoxicity against Homo sapiens (human) OVCAR8 cells assessed as growth inhibition at 10 uM after 48 hr by coulter counter analysis; details: OVCAR-8, 48 h, read-out: GI
EKVX = assay: Cytotoxicity against Homo sapiens (human) EKVX cells assessed as growth inhibition at 10 uM after 48 hr by coulter counter analysis; details: read-out: GI
ACHN = assay: Cytotoxicity against Homo sapiens (human) ACHN cells assessed as growth inhibition at 10 uM after 48 hr by coulter counter analysis; details: read-out: GI
UO-31 = assay: Cytotoxicity against Homo sapiens (human) UO31 cells assessed as growth inhibition at 10 uM after 48 hr by coulter counter analysis; details: UO-31, 48 h, read-out: GI
OVCAR-5 = assay: Cytotoxicity against Homo sapiens (human) OVCAR5 cells assessed as growth inhibition at 10 uM after 48 hr by coulter counter analysis; details: OVCAR-5, 48 h, read-out: GI

SMILES	inhibition of growth at 10 µM (TK-10) [%]	inhibition of growth at 10 µM (SK-MEL-5) [%]	inhibition of growth at 10 µM (MDA-MB-231) [%]	inhibition of growth at 10 µM (BT-549) [%]	inhibition of growth at 10 µM [1] [%]	inhibition of growth at 10 µM (MDA-MB-435) [%]	inhibition of growth at 10 µM (UACC-62) [%]	inhibition of growth at 10 µM (A498) [%]	inhibition of growth at 10 µM (HT-29) [%]	inhibition of growth at 10 µM (MCF7) [%]	inhibition of growth at 10 µM (NCI-H322M) [%]	inhibition of growth at 10 µM (SNB-75) [%]	inhibition of growth at 10 µM (OVCAR-4) [%]	inhibition of growth at 10 µM (U-251) [%]	inhibition of growth at 10 µM (MDA-MB-468) [%]	inhibition of growth at 10 µM (SK-MEL-28) [%]	inhibition of growth at 10 µM (HCC 2998) [%]	inhibition of growth at 10 µM (SW-620) [%]	inhibition of growth at 10 µM (RXF 393) [%]	inhibition of growth at 10 µM (Malme-3M) [%]	other results
O=C(CSc1nc2ccccc2c(=O)n1CCc1ccccc1)c1ccc(F)cc1	< 10	< 10	23	< 10	< 10	< 10	< 10	< 10	< 10	< 10	13	< 10	< 10	19	< 10	< 10	< 10	< 10	< 10	< 10	inhibition of growth at 10 µM (SNB-19): < 10%; inhibition of growth at 10 µM (SF-268): 25%; inhibition of growth at 10 µM (HOP-62): < 10%; inhibition of growth at 10 µM (PC-3): 13%; inhibition of growth at 10 µM (SN12C): < 10%; inhibition of growth at 10 µM (COLO 205): < 10%; inhibition of growth at 10 µM (KM12): < 10%; inhibition of growth at 10 µM (A549): 11%; inhibition of growth at 10 µM (HCT-15): < 10%; inhibition of growth at 10 µM (OVCAR-8): 31%; inhibition of growth at 10 µM (EKVX): 16%; inhibition of growth at 10 µM (ACHN): 24%; inhibition of growth at 10 µM (UO-31): 42%; inhibition of growth at 10 µM (OVCAR-5): < 10%
O=C(CSc1nc2ccccc2c(=O)n1CCc1ccccc1)c1ccccc1	< 10	< 10	11	< 10	< 10	< 10	16	46	< 10	< 10	< 10	18	< 10	11	14	< 10	< 10	< 10	< 10	14	inhibition of growth at 10 µM (SNB-19): < 10%; inhibition of growth at 10 µM (SF-268): < 10%; inhibition of growth at 10 µM (HOP-62): < 10%; inhibition of growth at 10 µM (PC-3): 14%; inhibition of growth at 10 µM (SN12C): < 10%; inhibition of growth at 10 µM (COLO 205): < 10%; inhibition of growth at 10 µM (KM12): < 10%; inhibition of growth at 10 µM (A549): 18%; inhibition of growth at 10 µM (HCT-15): < 10%; inhibition of growth at 10 µM (OVCAR-8): 15%; inhibition of growth at 10 µM (EKVX): 18%; inhibition of growth at 10 µM (ACHN): < 10%; inhibition of growth at 10 µM (UO-31): 22%; inhibition of growth at 10 µM (OVCAR-5): < 10%
O=c1c2ccccc2nc(SCCN2CCCCC2)n1CCc1ccccc1	< 10	24	34	14	13	< 10	< 10	17	70	37	< 10	13	14	14	< 10	< 10	< 10	11	19	< 10	inhibition of growth at 10 µM (SNB-19): < 10%; inhibition of growth at 10 µM (SF-268): < 10%; inhibition of growth at 10 µM (HOP-62): 11%; inhibition of growth at 10 µM (PC-3): < 10%; inhibition of growth at 10 µM (SN12C): < 10%; inhibition of growth at 10 µM (COLO 205): 25%; inhibition of growth at 10 µM (KM12): < 10%; inhibition of growth at 10 µM (A549): 13%; inhibition of growth at 10 µM (HCT-15): 20%; inhibition of growth at 10 µM (OVCAR-8): < 10%; inhibition of growth at 10 µM (EKVX): 30%; inhibition of growth at 10 µM (ACHN): < 10%; inhibition of growth at 10 µM (UO-31): 43%; inhibition of growth at 10 µM (OVCAR-5): 12%
